Results reported in patent US20220009894A1, “1,2,3,4-TETRAHYDROQUINOXALINE DERIVATIVE, PREPARATION METHOD THEREFOR AND APPLICATION THEREOF” (Abbisko Therapeutics Co., Ltd., priority 2019, published 2022).

Columns and labels:
RORγt-LBD = target: T1, RORγt-LBD (Homo sapiens, UniProt P51449); experiment: Time-resolved fluorescence resonance energy-transfer assay (TR-FRET), co-activator peptide recruitment; type: biochemical; parameters: TR-FRET Biochemical Amax: unit not given here; conditions: for EC50: His-RORγt-LBD 30 nM, SRC peptide 500 nM, agonistic activity, averages of one or more measurements, read-out: TR-FRET Biochemical EC50/; for TR-FRET Biochemical Amax: upper activation limit, His-RORγt-LBD, SRC peptide
T1 sequence (P51449 269-508 limits assumed): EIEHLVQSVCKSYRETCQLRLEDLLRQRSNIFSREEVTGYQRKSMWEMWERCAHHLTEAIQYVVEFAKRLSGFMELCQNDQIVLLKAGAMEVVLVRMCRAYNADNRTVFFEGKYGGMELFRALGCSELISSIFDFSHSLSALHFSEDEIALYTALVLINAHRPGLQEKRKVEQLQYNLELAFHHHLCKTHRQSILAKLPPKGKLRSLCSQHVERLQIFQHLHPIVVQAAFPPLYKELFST
Method in brief: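 Eu-anti-His-labelled His-RORγt-LBD (30 nM final) recruits biotin-SRC co-activator peptide (500 nM final), detected via APC-streptavidin (5 nM) and Eu-anti-His (0.25 nM). Buffer was Tris/KCl/EDTA at pH 7.0 with 0.01% Triton X-100 and 1 mM DTT. Compounds were tested at 7 points in 5-fold dilutions. Plates were incubated overnight at 4 °C then 1 h at RT, and agonism was read as the 665/615 nm ratio.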

RORγt = target: T2, RORγt (Homo sapiens, UniProt P51449); experiment: RORγt cellular reporter gene detection assay; type: cell-based; conditions: 24 hrs; for EC50: HEK 293 cells co-transfected with pFN26A-RORγt-LBD and pG14.35, in presence of antagonist Ursolic acid, top concentration 50 μM; for Cellular Reporter Assay Amax: upper activation limit, HEK 293 cells, in presence of antagonist Ursolic acid;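 on Cellular Reporter Assay Amax: Ursolic Acid added as 5 µL of 20 µM medium per well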
T2 construct: The plasmid of pFN26A-RORγt-LBD and pG14.35 (Promega, Cat. No. E1370) were co-transfected into HEK 293 cells; expressed in transfected cells; host or cells: HEK 293 cells (Cat. No. GNHu18)
T2 sequence (P51449 269-508 limits assumed): T1 sequence (P51449 269-508 limits assumed)
Method in brief: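 HEK293 cells co-transfected with RORγt-LBD and luciferase reporter plasmids, treated with Ursolic acid antagonist plus compound in 4-fold dilutions from 50 μM for 24 h at 37° C. Firefly and Renilla luminescence read; EC50 and Amax from four-parameter fit.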

## COC(=O)CC[C@H]1CN(S(=O)(=O)c2cccc(C(F)(F)F)c2)c2cc(/C=C(\C)c3c(F)cccc3Cl)ccc2N1C [Example 120, methyl (S,E)-3-(6-(2-(2-chloro-6-fluorophenyl)prop-1-en-1-yl)-1-methyl-4-((3-(trifluoromethyl)phenyl)sulfonyl)-1,2,3,4-tetrahydroquinoxalin-2-yl)propanoate]
RORγt-LBD
  EC50: 64.9 nM
  TR-FRET Biochemical Amax: 1.07
RORγt
  EC50: 157 nM
  Cellular Reporter Assay Amax: 5.7

## CC(C)(C)OC(=O)C(C)(C)N1CCN2c3ccc(-c4cc(F)cc(OC(F)F)c4)cc3N(S(=O)(=O)c3cccc(C(F)(F)F)c3)C[C@@H]2C1 [Example 51, tert-butyl (S)-2-(8-(3-(difluoromethoxy)-5-fluorophenyl)-6-((3-(trifluoromethyl)phenyl)sulfonyl)-1,2,4,4a,5,6-hexahydro-3H-pyrazino[1,2-a]quinoxalin-3-yl)-2-methylpropanoate]
RORγt-LBD
  EC50: 48.7 nM
  TR-FRET Biochemical Amax: 0.77
RORγt
  EC50: 3940 nM
  Cellular Reporter Assay Amax: 1.5

## CC(C)(C(=O)O)N1CCN2c3ccc(-c4cc(F)cc(OC(F)F)c4)cc3N(S(=O)(=O)c3cccc(C(F)(F)F)c3)C[C@@H]2C1 [Example 54, (S)-2-(8-(3-(difluoromethoxy)-5-fluorophenyl)-6-((3-(trifluoromethyl)phenyl)sulfonyl)-1,2,4,4a,5,6-hexahydro-3H-pyrazino[1,2-a]quinoxalin-3-yl)-2-methylpropanoic acid]
RORγt-LBD
  EC50: 20.1 nM
  TR-FRET Biochemical Amax: 0.72
RORγt
  EC50: 297 nM
  Cellular Reporter Assay Amax: 3.9

## C[C@@]1(O)CCN2c3ccc(-c4cc(F)cc(OC(F)F)c4)cc3N(S(=O)(=O)c3cccc(C(F)(F)F)c3)C[C@@H]2C1 [Example 107, (6aS,8R)-3-(3-(difluoromethoxy)-5-fluorophenyl)-8-methyl-5-((3-(trifluoromethyl)phenyl)sulfonyl)-6,6a,7,8,9,10-hexahydro-5H-pyrido[1,2-a]quinoxalin-8-ol]
RORγt-LBD
  EC50: 98.3 nM
  TR-FRET Biochemical Amax: 1.31
RORγt
  EC50: 643 nM
  Cellular Reporter Assay Amax: 3.0

## C/C(=C\c1ccc2c(c1)N(S(=O)(=O)c1cccc(C(F)(F)F)c1)C[C@@H]1CN(C(C)C(=O)O)CCN21)c1c(F)cccc1Cl (stereo partly drawn) [Example 25, 2-((S)-8-((E)-2-(2-chloro-6-fluorophenyl)prop-1-en-1-yl)-6-((3-(trifluoromethyl)phenyl)sulfonyl)-1,2,4,4a,5,6-hexahydro-3H-pyrazino[1,2-a]quinoxalin-3-yl) propanoic acid]
RORγt-LBD
  EC50: 6.35 nM
  TR-FRET Biochemical Amax: 0.84
RORγt
  EC50: 441 nM
  Cellular Reporter Assay Amax: 4.4

## CN1c2ccc(/C=C/c3c(Cl)cccc3C(F)(F)F)cc2N(S(=O)(=O)c2cccc(C(F)(F)F)c2)C[C@@H]1CCC(=O)O [Example 6, (S,E)-3-(6-(2-chloro-6-(tri-fluoromethyl)styryl)-1-meth-yl-4-((3-(trifluoromethyl)phenyl)sulfonyl)-1,2,3,4-tetrahydroquinoxalin-2-yl) propanoic acid]
RORγt-LBD
  EC50: 16.1 nM
  TR-FRET Biochemical Amax: 1.54
RORγt
  EC50: 528 nM
  Cellular Reporter Assay Amax: 4.2

## O=S(=O)(c1cccc(C(F)(F)F)c1)N1CC2CSCCN2c2ccc(-c3cc(F)cc(OC(F)F)c3)cc21 (centres unmarked) [Example 100, 8-(3-(difluoromethoxy)-5-fluorophenyl)-6-((3-(trifluoromethyl)phenyl)sulfonyl)-1,2,4,4a,5,6-hexahydro-[1,4]thiazino[4,3-a]quinoxaline]
RORγt-LBD
  EC50: 91.7 nM
  TR-FRET Biochemical Amax: 0.84
RORγt
  EC50: 3450 nM
  Cellular Reporter Assay Amax: 4.3

## C/C(=C\c1ccc2c(c1)N(S(=O)(=O)c1cccc(C(F)(F)F)c1)C[C@@H]1CNCCN21)c1c(F)cccc1Cl [Example 10, (S,E)-8-(2-(2-chloro-6-fluorophenyl)prop-1-en-1-yl)-6-((3-(trifluoromethyl)phenyl)sulfonyl)-2,3,4,4a,5,6-hexahydro-1H-pyrazino[1,2-a]quinoxaline]
RORγt-LBD
  EC50: 13.6 nM
  TR-FRET Biochemical Amax: 0.81
RORγt
  EC50: 578 nM
  Cellular Reporter Assay Amax: 2.8

## CC1(C)C=C(c2ccc3c(c2)N(S(=O)(=O)c2cccc(C(F)(F)F)c2)C[C@@H]2CN(C(=O)CC#N)CCN32)CC(C)(C)O1 [Example 31, (S)-3-oxo-3-(8-(2,2,6,6-tetramethyl-3,6-dihydro-2H-pyran-4-yl)-6-((3-(trifluoro-methyl)phenyl)sulfonyl)-1,2,4,4a,5,6-hexahydro-3H-pyrazino[1,2-a]quinoxa-lin-3-yl)propanenitrile]
RORγt-LBD
  EC50: 11.5 nM
  TR-FRET Biochemical Amax: 0.97
RORγt
  EC50: 419 nM
  Cellular Reporter Assay Amax: 3.4

## NC(=O)N1CCN2c3ccc(-c4cc(F)cc(OC(F)F)c4)cc3N(S(=O)(=O)c3cccc(C(F)(F)F)c3)C[C@@H]2C1 [Example 61, (S)-8-(3-(difluoromethoxy)-5-fluorophenyl)-6-((3-(trifluoro-methyl)phenyl)sulfonyl)-1,2,4,4a,5,6-hexahydro-3H-pyra-zino[1,2-a]quinoxaline-3-car-boxamide]
RORγt-LBD
  EC50: 86 nM
  TR-FRET Biochemical Amax: 0.69
RORγt
  EC50: 469 nM
  Cellular Reporter Assay Amax: 3.0

## O=S(=O)(c1cccc(C(F)(F)F)c1)N1C[C@@H]2CCCN2c2ccc(-c3cc(F)cc(OC(F)F)c3)cc21 [Example 4, (S)-7-(3-(difluoromethoxy)-5-fluorophenyl)-5-((3-(trifluoromethyl)phenyl)sulfonyl)-1,2,3,3a,4,5-hexa-hydropyrrolo[1,2-a]qui-noxaline]
RORγt-LBD
  EC50: 28.4 nM
  TR-FRET Biochemical Amax: 1.25
RORγt
  EC50: 3550 nM
  Cellular Reporter Assay Amax: 4.9

## N#Cc1ccc(F)c(-c2ccc3c(c2)N(S(=O)(=O)c2cccc(C(F)(F)F)c2)C[C@@H]2CN(CC(=O)O)CCN32)c1 [Example 96, (S)-2-(8-(5-cyano-2-fluorophe-nyl)-6-((3-(trifluoromethyl)phe-nyl)sulfonyl)-1,2,4,4a,5,6-hexa-hydro-3H-pyrazino[1,2-a]quin-oxalin-3-yl)acetic acid]
RORγt-LBD
  EC50: 31.4 nM
  TR-FRET Biochemical Amax: 0.43
RORγt
  EC50: 2090 nM
  Cellular Reporter Assay Amax: 1.2

## C/C(=C\c1ccc2c(c1)N(S(=O)(=O)c1cccc(C(F)(F)F)c1)C[C@@H]1CN(C[C@@H](O)CO)CCN21)c1c(F)cccc1Cl [Example 37, (R)-3-((S)-8-((E)-2-(2-chloro-6-fluorophenyl)prop-1-en-1-yl)-6-((3-(trifluoromethyl)phe-nyl)sulfonyl)-1,2,4,4a,5,6-hexa-hydro-3H-pyrazino[1,2-a]qui-noxalin-3-yl)propane-1,2-diol]
RORγt-LBD
  EC50: 37.5 nM
  TR-FRET Biochemical Amax: 1.21
RORγt
  EC50: 366 nM
  Cellular Reporter Assay Amax: 3.7

## C[C@@]1(OCCC(=O)O)CCN2c3ccc(-c4cc(F)cc(OC(F)F)c4)cc3N(S(=O)(=O)c3cccc(C(F)(F)F)c3)C[C@@H]2C1 [Example 113, 3-(((6aS,8R)-3-(3-(difluoromethoxy)-5-fluorophenyl)-8-methy 1-5-((3-(trifluoromethyl)phenyl)sulfonyl)-6,6a,7,8,9,10-hexahydro-5H-pyrido[1,2-a]quinoxalin-8-yl)oxy)propanoic acid]
RORγt-LBD
  EC50: 21.9 nM
  TR-FRET Biochemical Amax: 0.71
RORγt
  EC50: 149 nM
  Cellular Reporter Assay Amax: 2.8

## CC1(C)C=C(c2ccc3c(c2)N(S(=O)(=O)c2cccc(C(F)(F)F)c2)C[C@@H]2CN(C[C@H](O)CO)CCN32)CC(C)(C)O1 [Example 42, (S)-3-((S)-8-(2,2,6,6-tetrameth-yl-3,6-dihydro-2H-pyran-4-yl)-6-((3-(trifluoromethyl)phenyl)sulfonyl)-1,2,4,4a,5,6-hexa-hydro-3H-pyrazino[1,2-a]qui-noxalin-3-yl)propane-1,2-diol]
RORγt-LBD
  EC50: 0.84 nM
  TR-FRET Biochemical Amax: 1.28
RORγt
  EC50: 123 nM
  Cellular Reporter Assay Amax: 1.4

## COC(=O)C(C)N1CCN2c3ccc(C4=CC(C)(C)OC(C)(C)C4)cc3N(S(=O)(=O)c3cccc(C(F)(F)F)c3)C[C@@H]2C1 (stereo partly drawn) [Example 24, methyl 2-((S)-8-(2,2,6,6-tetramethyl-3,6-dihydro-2H-pyran-4-yl)-6-((3-(trifluoro-methyl)phenyl)sulfonyl)-1,2,4,4a,5,6-hexahydro-3H-pyrazino[1,2-a]qui-noxalin-3-yl)propanoate]
RORγt-LBD
  EC50: 31.5 nM
  TR-FRET Biochemical Amax: 0.92
RORγt
  EC50: 48.5 nM
  Cellular Reporter Assay Amax: 2.4

## CC(C(=O)O)N1CCN2c3ccc(-c4cc(F)cc(OC(F)F)c4)cc3N(S(=O)(=O)c3cccc(C(F)(F)F)c3)C[C@@H]2C1 (stereo partly drawn) [Example 26, 2-((S)-8-(3-(difluorome-thoxy)-5-fluorophenyl)-6-((3-(trifluoromethyl)phe-nyl)sulfonyl)-1,2,4,4a,5,6-hexahydro-3H-pyrazino[1,2-a]quinoxalin-3-yl) propanoic acid]
RORγt-LBD
  EC50: 29.6 nM
  TR-FRET Biochemical Amax: 0.64
RORγt
  EC50: 404 nM
  Cellular Reporter Assay Amax: 2.3
